Assay results: US20190328749A1, “FORMULATION OF LONG-ACTING LEVONORGESTREL BUTANOATE INJECTABLE DEPOT SUSPENSION” (Eastern Virginia Medical School, priority 2016, published 2019)
Where “and” joins values, the source holds several entries; their conditions need not be identical. Equal entries are not always repeated.

Experiments:
[1] = uniformity of LB particle size distribution and concentration after dispersion/mixing and homogenization; format: physicochemical; conditions: post LB dispersion in Part II & mixing with Part I
[2] = particle size distribution of micronized LB drug substance (dry milled, wet milled, spray dried); format: physicochemical
Method: FIG. 3 and FIG. 4 show typical particle size distributions and photomicrographs of LB drug substance prepared by dry milling. The dry milled LB powder was dispersed in 1% polysorbate 20 and three replicate measurements of the particle size distribution were made.
FIG. 5 and FIG. 6 show typical particle size distributions and photomicrographs of LB drug substance prepared by wet milling. After wet milling for 15 minutes, the LB suspension was sampled and three replicate measurements of the particle size distribution were made.
FIG. 7 and FIG. 8 show typical particle size distributions and photomicrographs of LB drug substance prepared by spray drying processes. The spray dried LB powder was dispersed in 0.5% polysorbate 80 and three replicate measurements of the particle size distribution were made.

[3] = system: ovulation; assay: monkey study, time to return to ovulation / duration of action; format: in vivo, non-human primates
[4] = system: ovulation; conditions: women, single dose of 50 mg, micronized aqueous suspension, injected; cited from earlier work
[5] = dry milled LB powder dispersed in 1% polysorbate 20, replicate runs
[6] = spray dried LB powder dispersed in 0.5% polysorbate 80, replicate runs
[7] = wet milled 15 minutes, LB suspension, replicate runs

## C#C[C@]1(OC(=O)CCC)CC[C@H]2[C@@H]3CCC4=CC(=O)CC[C@@H]4[C@H]3CC[C@@]21CC [LB, Levonorgestrel Butanoate]
[1]; 15 minutes
  Assay Results - Concentration of LB, Average: 20.03 mg/mL
  Particle Size D50: 6.3 μm
  Particle Size VMD: 8.1 μm
  particle size D10: 1.4 μm
  particle size D90: 17.1 μm
[1]; 30 minutes
  Assay Results - Concentration of LB, Average: 20.00 mg/mL
  Particle Size D50: 6.3 μm
  Particle Size VMD: 8.1 μm
  particle size D10: 1.4 μm
  particle size D90: 17.2 μm
[2]; [5]
  particle size D10: 5.3 μm and 5.1 μm and 4.3 μm
  particle size D90: 89.5 μm and 62.2 μm and 65.0 μm
  particle size Mean: 38.6 μm and 30.7 μm and 29.9 μm
  particle size Median: 23.1 μm and 22.7 μm and 18.6 μm
[2]; [6]
  particle size D10: 8.3 μm and 8.2 μm (2×)
  particle size D90: 24.7 μm and 24.8 μm (2×)
  particle size Median: 15.8 μm
[2]; [7]
  particle size D10: 5.4 μm (2×) and 4.3 μm
  particle size D90: 47.3 μm and 50.9 μm and 54.9 μm
  particle size Mean: 23.2 μm and 25.2 μm and 26.9 μm
  particle size Median: 18.0 μm and 18.4 μm and 21.0 μm
[3]
  time to return to ovulation: increases with increasing particle size of LB in the formulation and in many cases exceeding six months
[4]
  suppression of ovulation, duration: 5-6 months
